Laboratory results: patent US20160183577A1, “Transglucosylated Rubus suavissimus Extract and Methods of Preparation and Use” (INTERNATIONAL FLAVORS & FRAGRANCES INC., priority 2014, published 2016)

Assay: Sensory evaluation of sweetness and mouthfeel of solutions in sucrose base solution (Example II)
Assay type: in vivo
Details: in sucrose base solution (4% in water), sucrose 1.5%, Reb-A 30 ppm, sucralose 20 ppm, rubusoside 45 ppm, Preparations at total rubusoside 45 ppm; for Mouthfeel: averaged score of 0 to 10 (0=none, 1=barely detectable, 2=weak, 4=weak-moderate, 6=moderate, 8=moderate-strong, 10=extremely strong); for Sweetness: averaged score of 0 to 10 (0=none, 10=extremely strong)
Experimental: Isosweet solutions of sucrose (1.5%), rebaudioside A (“Reb-A”) (30 ppm), sucralose (20 ppm) and rubusoside (45 ppm) were prepared in a sucrose base solution (4% in water). Additional solutions of the transglucosylated R. suavissimus extract prepared with different rubusoside transglucosylation rates including Preparation I, II and III (prepared as above in EXAMPLE I) were also prepared, wherein the total rubusoside concentrations were equalized to 45 ppm.
Sweetness and mouthfeel of the obtained solutions were evaluated using a score of 0 to 10, where 0=none, 1=barely detectable, 2=weak, 4=weak-moderate, 6=moderate, 8=moderate-strong and 10=extremely strong.

Compound | Mouthfeel | Sweetness
C=C1C[C@@]23CC[C@H]4[C@@](C)(CCC[C@@]4(C)C(=O)O[C@@H]4O[C@H](CO)[C@@H](O)[C@H](O)[C@H]4O)[C@@H]2CC[C@]1(O[C@@H]1O[C@H](CO)[C@@H](O)[C@H](O)[C@H]1O)C3 [Rubusoside, rubusoside] | 4 | 5
C=C1C[C@@]23CC[C@H]4[C@@](C)(CCC[C@@]4(C)C(=O)O[C@@H]4O[C@H](CO)[C@@H](O)[C@H](O)[C@H]4O)[C@@H]2CC[C@]1(O[C@@H]1O[C@H](CO)[C@@H](O)[C@H](O[C@@H]2O[C@H](CO)[C@@H](O)[C@H](O)[C@H]2O)[C@H]1O[C@@H]1O[C@H](CO)[C@@H](O)[C@H](O)[C@H]1O)C3 [Reb-A, rebaudioside A] | 3 | 5
OC[C@H]1O[C@@](CO)(O[C@H]2O[C@H](CO)[C@@H](O)[C@H](O)[C@H]2O)[C@@H](O)[C@@H]1O [Sucrose, sucrose] | 7 | 5
OC[C@H]1O[C@H](O[C@]2(CCl)O[C@H](CCl)[C@@H](O)[C@@H]2O)[C@H](O)[C@@H](O)[C@H]1Cl [Sucralose, sucralose] | 3 | 5
